According to patent US20260248963A1, “COMPOSITIONS FOR TREATING CANCER WITH KRAS MUTATIONS AND USES THEREOF” (AADIGEN, LLC, priority 2023, published 2026):

Experiments:
Type in all cases: cell-based
[1] = system: MTRX-1133 resistant PANC-1 cells; assay: Cell growth inhibition assay, MTRX-1133 resistant PANC-1
Method: (§1) To identify mutations or regulatory mechanisms that would confer acquired resistance to KRAS^G12D inhibitor MTRX1133, ASPC-1 and PANC-1 cells harboring KRAS G12D were exposed to increasing concentrations of MTRX-1133 (up to 20 μM). […] Clones resistant to KRAS^G12D inhibitor were generated during the course of the treatment.
(§2) ADGN-123 nanoparticle corresponds to gRNA35A5 sgRNA/Cas9 mRNA (1/1 molar ratio) associated with ADGN peptide (ADGN-106-Hydro3 peptide or ADGN-108-R9) at molar ratio 20/1 (peptide/nucleic acid). ADGN-123 nanoparticles were evaluated on the three stable MTRX-1133 resistant PANC-1 clones and two ASPC-1 clones. PANC-1-C1, PANC-1-C2, PANC-1-C3, ASPC-1-C1 and ASPC-1-C2. Cells were cultured in 96-well plate format and treated with free mRNACas9-gRNA, or ADGN-123 (ADGN/mRNACas9-gRNA) complex (from 0.1-10 μM) on day 1. Cell proliferation was analyzed over a period of 5 days using CellTiter Glow kits on GlowMax (Promega) and cytotoxicity was analyzed at 72 hr after treatment using CellTiter Glow or MTT assays kits.

[2] = system: MTRX-1133 resistant ASPC-1 cells; assay: Cell growth inhibition assay, MTRX-1133 resistant ASPC-1
Method: as §1, §2

[3] = system: parental PANC-1 cells harboring KRAS G12D; assay: Growth suppression of parental PANC-1 cells
Method: as §1

[4] = system: parental ASPC-1 cells harboring KRAS G12D; assay: Growth suppression of parental ASPC-1 cells
Method: as §1

IC50 [1]: 4.75 ± 0.212 µM | IC50 [2]: 2.08 ± 0.203 µM
SMILES: C#Cc1c(F)ccc2cc(O)cc(-c3ncc4c(N5CC6CCC(C5)N6)nc(OC[C@@]56CCCN5C[C@H](F)C6)nc4c3F)c12 [MTRX-1133]
Lowest concentration that suppressed the growth of parental cells [3]: 100 nM | Lowest concentration that suppressed the growth of parental cells [4]: 100 nM
